Data as given in US20060004029A1, “Nitrogen-containing aromatic derivatives” (priority 2003, published 2006).

Test system: KP-1/VEGF human pancreatic cancer cells
Assay: In vivo angiogenesis-inducing activity using mouse dorsal air sac model
Conditions: oral, once a day, C57BL/6N female mice, 4th day
Method: PCR was conducted using a human placenta cDNA library (Toyobo Co., Ltd.) as the template and the SEQ ID NO:1 (5′[…]3′) and SEQ ID NO:2 (5′[…]3′) of VEGF as primers. After completion of the PCR reaction, the 5′ ends were phosphorylated and an approximately 600 bp DNA band was separated by 1.2% agarose gel electrophoresis. After polymerization by self-ligation, the cDNA was cut with EcoRI and BamHI and inserted into the EcoRI and BamHI sites of vector pUC19. This was used to transform E. coli JM83, and plasmids were recovered from the transformed clones. A VEGF cDNA fragment was cut out of the plasmids with HindIII and EcoRI and then inserted into pIRES2-rsGFP vector to yield pIRES2-rsGFP/VEGF for protein expression.
After overnight culturing of KP-1 human pancreatic cancer cells (3×10^6 cells) with 10% FCS-containing RPMI 1640 medium, an Effectene Transfection Reagent Kit (Qiagen) was used for introduction of 3 μg of pIRES2-rsGFP/VEGF into the KP-1 cells. After culturing in 10% FCS-containing RPMI 1640 medium containing 600 μg/ml of Geneticin, drug-resistant cells were selected. Furthermore, GFP high-expressing cells were collected by cell sorter (Becton Dickinson) as VEGF high-expressing KP-1 cells (KP-1/VEGF).
The KP-1/VEGF cells were prepared to 5×10^5 cells/ml, and 0.5 ml thereof was dispensed into each well of a 24-well plate and cultured at 37° C. for 24 hours. The culture supernatants were collected and the VEGF levels thereof measured using a VEGF measuring kit (IBL Co., Ltd.) for confirmation of high expression.
Millipore rings (Nihon Millipore) were sealed with 0.45 μm Durapore filter membranes (Nihon Millipore) to create chambers. KP-1/VEGF human pancreatic cancer cells (3×10^6) suspended in 0.17 ml of collagen gel were injected into each chamber through the injection port, and the chambers were sealed. Approximately 10 ml of air was then injected in the dorsal skin of 6-week-old C57BL/6N female mice under anesthesia to produce pouches, and the prepared chambers were transplanted therein. About 6 hours after completing transplantation, a test substance suspended in 0.5% methyl cellulose was orally administered (0.1 ml/10 g body weight), and this was continued once a day for the next 4 days.
On the 4th day after transplanting the chambers, 0.2 ml of ^51Cr (Amersham Pharmacia)-labeled mouse erythrocytes (2.5×10^6 cpm/ml) were injected through the caudal veins of each of the mice with the transplanted chambers. After a prescribed period, the skin in contact with the chamber was excised and frozen, the section in direct contact with the chamber was precisely cut off, and the radioactivity was measured with a Y-counter. The blood volume was calculated from the radioactivity and used as an index of the in vivo angiogenesis-inducing activity. The angiogenesis volume was recorded as this measured blood volume minus the blood volume obtained with transplantation of a chamber containing only collagen gel. The experiment was conducted using 10 mice in the control (solvent-administered) group and 5 mice in each compound-administered group.

| Compound | proportion of the angiogenesis amount after administering test substance to that of control (30 mg/kg/day) | proportion of the angiogenesis amount after administering test substance to that of control (100 mg/kg/day) |
| --- | --- | --- |
| CNC(=O)n1ccc2cc(Oc3ccnc(NC(=O)N4CCC(N5CCCC5)CC4)c3)ccc21 [Example 46, N1-Methyl-5-(2-(((4-(pyrrolidin-1-yl)piperidin-1-yl)carbonyl)amino)pyridin-4-yloxy)-1H-1-indolecarboxamide] | 59.9% | 43.7% |
| CNC(=O)n1ccc2cc(Oc3ccnc(NC(=O)N4CCC(N5CCCCC5)CC4)c3)ccc21 [Example 47, N1-Methyl-5-(2-(((4-(piperidin-1-yl)piperidin-1-yl)carbonyl)amino)pyridin-4-yloxy)-1H-1-indolecarboxamide] | 87.4% | 39.5% |
| CNC(=O)n1ccc2cc(Oc3ccnc(NC(=O)N4CCOCC4)c3)ccc21 [Example 53, N4-(4-(1-(Methylamino)carbonyl-1H-5-indolyl)oxy-2-pyridyl)-4-morpholinecarboxamide] | 43.3% | 44.4% |
